Assay results from patent publication US10358453B2, “Antiviral compounds” (priority 2015, dated 2019).
pEC50, pIC50: −log10 of the molar value. Like-named read-outs stand apart in the source and are kept apart here.

Assays:
[1] = test system: Respiratory Syncytial Virus (RSV) long strain; assay: RSV antiviral assay (CPE reduction, CCK-8 readout); assay type: cell-based; conditions: human respiratory syncytial virus
Description: CPE reduction assays are performed as described by Sidwell and Huffman et al., Appl. Microbiol. […] Compounds are added into 384-well cell plates by Labcyte POD 810 Plate Assembler system. Each of the test compounds is provided to duplicate wells of a 384-well cell plate at final concentrations starting from 100 μM or 1 μM using 1/3 stepwise dilutions for 9 points. Quick-thaw Respiratory Syncytial Virus (RSV) long strain (ATCC#VR-26) stock in a 37° C. water bath. Place on ice until ready to use. Viruses are diluted to the concentration of 100 TCID50/30 μL with medium and 30 μl diluted RSV are added into related wells of 384-well cell plates. For each plate, sixteen wells are set aside as uninfected, untreated cell controls (CC), and nine wells per test plate receive virus only as a control for virus replication (VC). The final DMSO concentration of all wells is 1%. Place the plates at 37° C., 5% CO2 for 5 days.
After 5 days incubation, observe the CPE of cells in all wells. […] Six μl of cell counting kit-8 reagent (CCK-8, Dojindo Molecular Technologies Inc., CK04-20) are added to each well, which allows colorimetric assays to determine the number of viable cells through the dehydrogenase activity detection. After 3-4 hour incubation, the absorbance of each well is measured with a spectrophotometric plate reader at 450 nm wavelength, using a 630 nm filter as background according to manufacturer's instruction.

[2] = test system: RSV subgenomic replicon 395 HeLa and APC126; assay: RSV subgenomic replicon assay (Renilla luciferase); assay type: cell-based; conditions: human respiratory syncytial virus; RSV replicon cells (395 HeLa 7 days or APC126 3 days); Table G = less than 1 μM, Table H = equal to or higher than 1 μM and less than 50 μM
Procedure, shortened: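 Replicon cells (RSV with SH, G, F replaced by blasticidin resistance; 395 HeLa or BHK-derived APC126) exposed to 9-point 1:3 compound dilutions in 1% DMSO for 7 days (395 HeLa) or 3 days (APC126) at 37 °C. Renilla luciferase luminescence read; EC50 is concentration cutting signal 50% versus untreated cells.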

[3] = target: recombinant RSV complex (Human respiratory syncytial virus A, UniProt P28887); assay: RSV polymerase inhibition assay; assay type: biochemical; conditions: 10 nM recombinant RSV complex, 2 h at 30° C.; Table E = <1 μM, Table F = <50 μM; read-out: IC50
Procedure, shortened: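 Inhibitor titrations run for 2 h at 30° C against 10 nM recombinant RSV complex, using RNA oligonucleotide template and radiolabelled nucleotides in pH7.5 Tris-HCl, 6 mM MgCl2. After EDTA quench, scintillation counting of labelled RNA; sigmoidal fit gave the 50% rate-reduction concentration.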

[4] = Cytotoxicity determination (CCK-8, without addition of virus); assay type: cell-based; conditions: human, HEp-2 cells (uninfected), no virus, Table C = greater than 100 μM, Table D = equal to or less than 100 μM and greater than 10 μM
Procedure, shortened: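 HEp-2 cells, no virus, exposed to compound from 100 μM in ½ serial dilutions (7 points, duplicate, 1% DMSO) for 5 days at 37° C, 5% CO2. Viability by CCK-8 (3-4 h) optical density; CC50 calculated.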

[5] = 120 h, HEp-2 cells, RSV long strain, 5 days, Table A = less than 1 μM, Table B = equal to or higher than 1 μM and less than 50 μM, read-out: EC50

Chain of recombinant RSV complex (P28887 whole entry): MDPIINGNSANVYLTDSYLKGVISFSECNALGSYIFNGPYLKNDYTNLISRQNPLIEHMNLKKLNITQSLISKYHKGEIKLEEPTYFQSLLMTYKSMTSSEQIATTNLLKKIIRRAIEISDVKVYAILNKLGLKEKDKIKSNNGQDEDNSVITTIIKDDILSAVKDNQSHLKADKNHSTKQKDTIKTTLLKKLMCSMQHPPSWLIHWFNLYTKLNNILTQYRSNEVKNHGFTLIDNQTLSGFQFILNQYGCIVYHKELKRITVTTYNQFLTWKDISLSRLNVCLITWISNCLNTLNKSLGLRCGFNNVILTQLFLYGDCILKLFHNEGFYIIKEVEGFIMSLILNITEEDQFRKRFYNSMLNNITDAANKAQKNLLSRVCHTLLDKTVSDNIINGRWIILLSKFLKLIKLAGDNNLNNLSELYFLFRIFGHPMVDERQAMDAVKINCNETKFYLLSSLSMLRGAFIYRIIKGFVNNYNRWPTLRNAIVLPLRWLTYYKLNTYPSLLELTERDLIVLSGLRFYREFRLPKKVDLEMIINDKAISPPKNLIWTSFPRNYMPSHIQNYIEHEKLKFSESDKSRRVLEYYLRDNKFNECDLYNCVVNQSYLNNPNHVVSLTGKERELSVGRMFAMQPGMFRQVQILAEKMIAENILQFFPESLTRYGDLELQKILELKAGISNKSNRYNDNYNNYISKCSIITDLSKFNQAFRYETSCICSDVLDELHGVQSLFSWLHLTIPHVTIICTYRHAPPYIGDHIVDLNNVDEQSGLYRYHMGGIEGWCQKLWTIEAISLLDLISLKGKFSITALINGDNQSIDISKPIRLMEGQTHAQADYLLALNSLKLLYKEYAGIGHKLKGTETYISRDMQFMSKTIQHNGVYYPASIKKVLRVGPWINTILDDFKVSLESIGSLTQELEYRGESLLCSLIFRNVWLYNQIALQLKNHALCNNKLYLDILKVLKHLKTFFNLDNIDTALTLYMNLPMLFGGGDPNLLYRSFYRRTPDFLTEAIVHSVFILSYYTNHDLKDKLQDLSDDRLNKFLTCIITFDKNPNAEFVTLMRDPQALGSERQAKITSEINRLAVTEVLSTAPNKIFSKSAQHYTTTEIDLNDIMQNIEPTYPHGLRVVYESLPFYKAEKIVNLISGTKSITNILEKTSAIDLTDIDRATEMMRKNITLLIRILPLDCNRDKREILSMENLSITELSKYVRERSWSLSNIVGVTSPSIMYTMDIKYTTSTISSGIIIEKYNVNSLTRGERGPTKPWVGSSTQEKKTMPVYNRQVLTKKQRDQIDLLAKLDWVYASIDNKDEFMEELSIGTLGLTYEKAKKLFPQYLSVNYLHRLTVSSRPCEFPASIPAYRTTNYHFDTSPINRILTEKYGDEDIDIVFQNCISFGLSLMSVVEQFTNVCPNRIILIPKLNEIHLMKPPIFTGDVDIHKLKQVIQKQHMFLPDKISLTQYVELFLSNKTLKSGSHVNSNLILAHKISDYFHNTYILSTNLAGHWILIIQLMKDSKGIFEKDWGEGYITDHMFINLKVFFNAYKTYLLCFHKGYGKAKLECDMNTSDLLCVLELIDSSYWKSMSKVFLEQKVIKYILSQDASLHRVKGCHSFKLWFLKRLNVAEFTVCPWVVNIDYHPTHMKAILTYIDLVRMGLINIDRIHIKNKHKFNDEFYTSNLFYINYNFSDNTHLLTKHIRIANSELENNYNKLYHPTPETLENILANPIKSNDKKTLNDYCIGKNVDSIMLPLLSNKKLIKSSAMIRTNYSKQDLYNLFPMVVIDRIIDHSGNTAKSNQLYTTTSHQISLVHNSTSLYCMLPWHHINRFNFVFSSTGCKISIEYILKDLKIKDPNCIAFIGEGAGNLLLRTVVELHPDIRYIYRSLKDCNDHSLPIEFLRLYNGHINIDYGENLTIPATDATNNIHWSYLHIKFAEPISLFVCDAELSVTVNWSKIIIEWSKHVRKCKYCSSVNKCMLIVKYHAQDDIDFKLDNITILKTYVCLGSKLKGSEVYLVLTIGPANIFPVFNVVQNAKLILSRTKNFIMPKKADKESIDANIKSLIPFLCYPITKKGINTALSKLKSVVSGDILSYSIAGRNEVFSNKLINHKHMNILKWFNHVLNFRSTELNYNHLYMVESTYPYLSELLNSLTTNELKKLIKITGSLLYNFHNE
Chain of recombinant RSV complex (P03421 whole entry, further chain): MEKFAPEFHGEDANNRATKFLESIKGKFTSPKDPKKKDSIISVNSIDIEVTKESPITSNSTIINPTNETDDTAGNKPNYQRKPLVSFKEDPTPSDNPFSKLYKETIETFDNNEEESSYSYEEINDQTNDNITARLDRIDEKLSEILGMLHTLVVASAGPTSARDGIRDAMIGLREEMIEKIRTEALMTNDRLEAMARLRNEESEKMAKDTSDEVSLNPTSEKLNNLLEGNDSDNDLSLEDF

CC1(N)COc2c1cc(C(O)(CNC(=O)c1ccc(OC3CC3)c(OCCO)c1)C(F)(F)F)nc2-c1ccc(F)cc1 (centres unmarked) [Compound 12]
pEC50 [1, 5]: > 6.00 | pEC50 [2]: > 6.00 | pIC50 [3]: > 6.00

COc1cc(C(=O)NCC(O)(c2cc3c(c(-c4ccc(F)cc4)n2)OCC3(C)N)C(F)(F)F)cc2c1NC(=O)C2=O (centres unmarked) [Compound 10]
pEC50 [1, 5]: 4.30 to 6.00 | pEC50 [2]: 4.30 to 6.00 | pIC50 [3]: > 4.30 | CC50 at 5 days [4]: 10000 to 100000 nM

COc1cc(C(=O)NC[C@@](O)(c2cc3c(c(-c4ccc(F)cc4)n2)OC[C@@]3(C)N)C(F)(F)F)cc2ccc(C(C)(C)O)nc12 [Compound 90]
pEC50 [2]: > 6.00 | pIC50 [3]: > 6.00 | CC50 at 5 days [4]: 10000 to 100000 nM

COc1cc(C(=O)NCC(O)(c2nc(-c3ccc(F)cc3)cc3c2OC(C)(N)C3)C(F)(F)F)ccc1OC[C@@H](C)O (some centres unmarked) [Compound 120]
pEC50 [2]: > 6.00 | pIC50 [3]: > 6.00 | CC50 at 5 days [4]: 10000 to 100000 nM

C[C@@]1(N)CNc2c1cc([C@](O)(CNC(=O)c1ccc(OCCO)c(OC3CC3)c1)C(F)(F)F)nc2-c1ccc(F)cc1 [Compound 61]
pEC50 [2]: > 6.00 | pIC50 [3]: > 6.00 | CC50 at 5 days [4]: 10000 to 100000 nM

COc1cc(C(=O)NCC(O)(c2cc3c(c(-c4ccc(F)cc4)n2)OCC3(N)CO)C(F)(F)F)cc2cccnc12 (single isomer, unassigned) [Compound 2]
pEC50 [1, 5]: > 6.00 | pEC50 [2]: > 6.00 | pIC50 [3]: > 6.00

COc1cc(C(=S)NCC(O)(c2cc3c(c(-c4ccc(F)cc4)n2)OCC3(C)N)C(F)(F)F)ccc1OCCO (centres unmarked) [Compound 44]
pEC50 [2]: > 6.00 | pIC50 [3]: > 6.00 | CC50 at 5 days [4]: 10000 to 100000 nM

COc1cc(C(=O)NC[C@@](O)(c2cc3c(c(-c4ccc(F)cc4)n2)NC[C@@]3(C)N)C(F)(F)F)ccc1OC1CC1 [Compound 127]
pEC50 [2]: > 6.00 | pIC50 [3]: > 6.00 | CC50 at 5 days [4]: 10000 to 100000 nM

COc1cc(C(=O)NCC(O)(c2cc3c(c(-c4ccc(F)cc4)n2)OCC3(N)CO)C(F)(F)F)cc2cccnc12 (centres unmarked) [Compound 1]
pEC50 ([1]; HEp-2, 120 h): > 6.00 | pEC50 [2]: > 6.00 | pIC50 [3]: > 6.00 | CC50 at 5 days [4]: 10000 to 100000 nM

COc1cc(C(=O)NCC(O)(c2cc3c(c(-c4ccc(F)cc4)n2)OCCC3(C)N)C(F)(F)F)ccc1OCC(C)O (single isomer, unassigned) [Compound 86]
pEC50 [2]: 4.30 to 6.00 | pIC50 [3]: > 6.00 | CC50 at 5 days [4]: 10000 to 100000 nM
